Marks after values point to notes of the source that are not given here.
Experiments:
[1] = system: fibrillin-rich microfibrils proximal to the dermal-epidermal junction (DEJ); test: Patch-test protocol, immunohistochemistry of fibrillin-rich microfibrils in photoaged skin in vivo; set-up: species or system human; settings: for Fibrillin expression proximal to the DEJ, Mean (degree of immunostaining): scale 0-4
Text: (§1) It was done by identification of Procollagen-I and Fibrillin upregulation and matrix metalloprotease-1 (MMP-1) down-regulation in Skin In Vivo. Experiments were done following topical Retinoic Acid (RA) treatment for comparative purposes and analysis of the effects of salicyloyl-phytosphingosine and phytosphingosine compared with retinoic acid with respect to the expression of dermal markers in vivo. See: Watson R E B, Craven N M, Kang S, Jones C J P, Kielty C M, Griffiths C E M. A short term screening protocol, using fibrillin-1 as a […] molecule for photoageing repair agents. J Invest Dermatol, 116: 672-678, 2001, for published methodology.
(§2) Five healthy, but clinically photoaged volunteers, were recruited (age range 54-71 years). Test substances were applied separately under standard 6 mm diameter Finn chambers to the extensor aspect of the forearm: these were vehicle base (15 μl/chamber), 0.2% PS-SLC (15 μl/chamber), 0.05% PS-SLC (15 μl/chamber), 0.2% phytosphingosine (15 μl/chamber) and 0.025% all-tans RA (Retin-A® cream, Janssen-Cilag Ltd., 15 μl/chamber). Formulations were applied to clean skin on days 1 and 4 of the assay. All-trans RA was applied to an untreated site on day 4. On day 8, Finn chambers were removed and 3 mm punch biopsies were obtained under 1% lignocaine anaesthesia from each of the test site. Biopsies were embedded in OCT compound (Tissue-Tek®, Miles, Ind., USA) and snap frozen in liquid nitrogen. Biopsy sites were sutured with 1×4/o ethilon and subjects instructed to return between 7-10 days for suture removal. Frozen sections were […] at a thickness of 10 μm (OTF cryostat, Bright Instruments Ltd.) and mounted onto gelatin-coated slides prior to histological analysis. A number of extracellular matrix (ECM) molecules known to be altered in photoaged skin were assayed by immunohistochemistry to detail the potential effects of the novel formulations. The primary marker of outcome was the distribution of fibrillin-rich microfibrils proximal to the dermal-epidermal junction (DEJ). Also assessed was the distribution of procollagen-1 within the dermis.
(§3) Matrix metalloprotease-1 (MMP-1) levels were also assessed. Whilst the fibrillin and procollagen-1 should increase for an antiaging active levels of MMP-1 should decrease for an antiaging active, i.e., increased synthesis of dermal structural proteins together with reduced levels of the proteases that degrade them. For each analysis, the marker was identified in each of three sections (i.e., 3 sections/treatment/volunteer). Sections were optimally fixed. Routinely, following hydration in tris-buffered saline (TBS; 100 mM Tris, 150 mM NaCl), sections were solublised by addition of 0.5% Triton-X100 (10 minutes). Following washing, endogenous peroxidase activity was abolished by incubation with an excess of hydrogen peroxide in methanol (30 minutes). Sections were blocked prior to application of primary antibody (overnight incubation @4° C.). Negative controls were concurrently incubated with either block alone or control serum. Following incubation, sections were stringently washed with TBS prior to application of an appropriate biotinylated secondary antibody. This was further conjugated to the enzyme horseradish peroxidase using a commercially available kit following the manufacturers instructions (ABC Elite System, Vector Laboratory, Peterborough UK). Antibody was localised using Vector SG® as chromogen (10 minute incubation)—washing in TBS quenched this reaction. Sections were counterstained using Nuclear Fast Red and finally dehydrated through serial alcohols, cleared and permanently mounted.
(§4) Sections were randomised, blinded and examined on a Nikon OPTIPHOT microscope (Tokyo, Japan). For assessment of ECM and cornified envelope components, the degree of immunostaining was assessed on a 5 point semi-quantitative scale where 0=no staining and 4=maximal staining. Four sections (including control) were examined per subject per site. […]

[2] = system: Matrix metalloprotease-1 (MMP-1); test: Patch-test protocol, immunohistochemistry of MMP-1 in photoaged skin in vivo; set-up: species or system human; settings: for MMP-1 expression, Mean (MMP-1 IHC): N=5
Text: as §1, §2, §3, §4

[3] = system: pro-collagen I in the papillary dermis; test: Patch-test protocol, immunohistochemistry of pro-collagen I in photoaged skin in vivo; set-up: species or system human; settings: for Pro-collagen I expression in the papillary dermis, Mean (degree of immunostaining): scale 0-4, N=5
Text: as §1, §2, §3, §4

cellulite (thigh) = test: Clinical trial of anticellulite activity by topical application; assay type: in vivo, human; settings: 0.2% formulation of Example 2, two times a day for 2 months, six female subjects
Text: Six female subjects were selected for a clinical trial of anticellulite activity of salicyloyl-phytoshingosine by topical application.
The scale ranged from 0 to 4, being 0=No cellulite; 1=Small bumps or depressions; 2=Striations and bumps; 3=Pronounced lumpiness of the skin and striations; 4=All of the above plus hard sub-surface nodules. All tested volunteers had cellulite with grades 1 and 2. The subjects were divided in 2 groups of 3 individuals
Group 1 was instructed to apply a formulation described in Example 2 containing 0.2% salicloyl-phytosphingosine on the right thigh and the vehicle formulation without salicyloyl-phytoshingosine in the left thigh Group 2 was instructed to apply the formulations vice versa. The subjects were taught to carry out the application two times a day, at morning and at night for a period of 2 months. Afterwards the cellulite condition was evaluated by comparison of the thigh diameter, the clinical degrading and the subjective improvement.

[4] = Patch-test protocol, erythema at the site of application; assay type: in vivo, human; settings: occluded patch test on forearm, photoaged volunteers
Procedure: as §2, with “The primary marker of outcome was the distribution of fibrillin-rich microfibrils proximal to the dermal-epidermal junction (DEJ).” left out

[5] = 0.2% topical under Finn chamber, applied days 1 and 4, biopsy day 8, N=5 photoaged volunteers
[6] = 0.05% topical under Finn chamber, applied days 1 and 4, biopsy day 8
[7] = 0.2% topical under Finn chamber, applied days 1 and 4, biopsy day 8
[8] = 0.025% (Retin-A cream), applied day 4, biopsy day 8
[9] = 0.2% topical occluded, vs vehicle
[10] = topical occluded application, concentration not given

SMILES	Fibrillin expression proximal to the DEJ, Mean (degree of immunostaining) ([1]; 0.05% topical under Finn chamber, applied days 1 and 4, biopsy day 8, N=5)	Fibrillin expression proximal to the DEJ, Mean (degree of immunostaining) [1, 5]	MMP-1 expression, Mean (MMP-1 IHC) [2, 6]	MMP-1 expression, Mean (MMP-1 IHC) [2, 7]	Pro-collagen I expression in the papillary dermis, Mean (degree of immunostaining) [3, 6]	Pro-collagen I expression in the papillary dermis, Mean (degree of immunostaining) [3, 7]	Clinical grading (cellulite) reduction in comparison with the vehicle treated thigh (cellulite (thigh))	Subjective improvement increase in comparison with the vehicle treated thigh (cellulite (thigh))	Thigh diameter reduction in comparison with the vehicle treated thigh (cellulite (thigh))	Fibrillin expression proximal to the DEJ, Mean (degree of immunostaining) ([1]; 0.025% (Retin-A cream) under Finn chamber, applied day 4, biopsy day 8, N=5)	MMP-1 expression, Mean (MMP-1 IHC) [2, 8]	Expression of MMP-1 (in words) ([2]; 0.025% all-trans RA, 4 day occluded application)	Erythema at the site of application [4]	Pro-collagen I expression in the papillary dermis, Mean (degree of immunostaining) [3, 8]	Fibrillin-1 deposition proximal to the DEJ (in words) [1, 9]	Fibrillin-rich microfibrillar network proximal to the DEJ of photoaged skin (study summary, in words) [1, 10]	MMP-1 levels (in words) [2, 9]	pCI content in the papillary dermis (in words) [3, 9]	Effects on procollagen I in the papillary dermis (study summary, in words) [3, 10]
CCCCCCCCCCCCCC[C@@H](O)[C@@H](O)[C@H](CO)NC(=O)c1ccccc1O [PS-SLC, salicyloyl-phytosphingosine]	1.7778**	2.267*	18.40*	22.72*	2.2472	2.7790*	27%	34%	4%										
CC1=C(/C=C/C(C)=C/C=C/C(C)=C/C(=O)O)C(C)(C)CCC1 [RA, retinoic acid]										2.8625**	36.82	no effect	marked erythema	2.2667					
CCCCCCCCCCCCCC[C@@H](O)[C@@H](O)[C@@H](N)CO [PS, phytosphingosine]		2.0000**		33.23		2.5556**									significant induction of fibrillin expression	restores	no effect	significantly increased	beneficial effects

— patent US20070003509A1, “Skin treatment composition” (priority 2005, published 2007)
